Laboratory results: the NIST ThermoML archive (doi:10.1016/j.jct.2011.07.018)

Experiment: excess molar enthalpy (molar enthalpy of mixing); xn = mol fraction of the nth substance listed
Details: 298.15 K, 101 kPa, Liquid, isothermal titration calorimeter

CCCCCC(=O)O [hexanoic acid] + CN(C)C=O
Details | excess molar enthalpy [kcal/mol]
x2 = 0.048 | -0.0576
x2 = 0.092 | -0.11
x2 = 0.132 | -0.158
x2 = 0.169 | -0.202
x2 = 0.203 | -0.243
x2 = 0.24 | -0.288
x2 = 0.274 | -0.328
x2 = 0.304 | -0.363
x2 = 0.333 | -0.394
x2 = 0.359 | -0.42
x2 = 0.383 | -0.442
x2 = 0.412 | -0.467
x2 = 0.439 | -0.484
x2 = 0.464 | -0.496
x2 = 0.486 | -0.503
x2 = 0.502 | -0.506
x2 = 0.516 | -0.506
x2 = 0.53 | -0.505
x2 = 0.543 | -0.503
x2 = 0.556 | -0.499
x2 = 0.568 | -0.494
x2 = 0.579 | -0.489
x2 = 0.589 | -0.483
x2 = 0.602 | -0.475
x2 = 0.613 | -0.467
x2 = 0.625 | -0.458
x2 = 0.635 | -0.449
x2 = 0.645 | -0.44
x2 = 0.656 | -0.43
x2 = 0.666 | -0.42
x2 = 0.676 | -0.409
x2 = 0.685 | -0.4
x2 = 0.694 | -0.39
x2 = 0.702 | -0.381
x2 = 0.71 | -0.372
x2 = 0.718 | -0.363
x2 = 0.726 | -0.352
x2 = 0.735 | -0.342
x2 = 0.743 | -0.332
x2 = 0.75 | -0.323
x2 = 0.757 | -0.314
x2 = 0.764 | -0.306
x2 = 0.77 | -0.298
x2 = 0.776 | -0.291
x2 = 0.782 | -0.283
x2 = 0.789 | -0.275
x2 = 0.794 | -0.268
x2 = 0.799 | -0.261
x2 = 0.812 | -0.241
x2 = 0.824 | -0.226
x2 = 0.836 | -0.21
x2 = 0.849 | -0.194
x2 = 0.862 | -0.177
x2 = 0.875 | -0.159
x2 = 0.889 | -0.142
x2 = 0.903 | -0.124
x2 = 0.916 | -0.107
x2 = 0.929 | -0.0906
x2 = 0.942 | -0.0736
x2 = 0.956 | -0.0557
x2 = 0.97 | -0.0373
x2 = 0.985 | -0.0186
